Data on 7 molecules can be found in patent US20220145343A1 (priority 2019, published 2022).

Read-outs that look alike come from different tables or passages of the source.

Series [1] has as its target NmSiaDW α2-6-sialyltransferase activity (Neisseria meningitidis, UniProt O33390). As to the kind of experiment: Enzyme kinetics by varying CMP-Neu5Ac concentrations, fixed acceptor G2 or G10. It is filed as biochemical. Conditions: apparent, fixed acceptor 1 mM (row names the acceptor). As for the experimental part:
Enzyme kinetics by varying donor concentrations. For varying UDP-Gal concentrations, reactions were performed in duplicate at 30° C. for 10 minutes in the presence of MES buffer (100 mM, pH 6.5), MgCl2 (10 mM), S3 or S9 (2 mM), UDP-Gal (0.1, 0.2, 0.5, 1.0, 2.0, 5.0 and 10.0 mM), and NmSiaDW (0.025 μM for S3, 0.031 μM for S9) in a total volume of 20 μL. For varying CMP-Neu5Ac concentrations, reactions were performed in duplicate at 30° C. for 10 minutes in the presence of Tris-HCl buffer (100 mM, pH 8.0), MgCl2 (10 mM), G2 or G10 (1 mM), CMP-Neu5Ac (0.2, 0.5, 1.0, 2.0, 5.0 and 10.0 mM), and NmSiaDW (0.025 μM for G2, 0.062 μM for G10) in a total volume of 20 μL. Data analyses were carried out as described above.
NmSiaDW kinetics studies where the concentrations of the donors were also conducted, using a fixed concentration of a representative short or long acceptor substrate. S3 or S9 was used as the acceptor substrate for varying the concentration of UDP-Gal and G2 or G10 was used as the acceptor substrate for varying the concentration of CMP-Neu5Ac. […] The averages of nonlinear regression standard errors from technical duplicates are shown.

For series [2], the target named is NmSiaDW sialyltransferase activity (Neisseria meningitidis, UniProt O33390). The conditions noted are these: apparent; varying acceptor, 10 mM CMP-Neu5Ac, pH 8.0, 30° C.
Series [3] relates to α2-6-sialyltransferase activity of NmSiaDW. It is filed as biochemical, Neisseria meningitidis.
The target in series [4] is NmSiaDW α1-4-galactosyltransferase activity (Neisseria meningitidis, UniProt O33390). It is filed as biochemical. Conditions: apparent; varying UDP-Gal, fixed acceptor 2 mM (row names the acceptor).
Series [5] deals with NmSiaDW galactosyltransferase activity (Neisseria meningitidis, UniProt O33390). Conditions: for increase of overall catalytic efficiency (kcat/KM) relative to monosaccharide S1: monosaccharide to nonasaccharide.
In series [6] the test system is NmSiaDW. As to the kind of experiment: Temperature profile of NmSiaDW activities. It is filed as biochemical, Neisseria meningitidis. As for the experimental part:
Assays were carried out in duplicate at different temperatures for 20 min in a total volume of 10 μL in a buffer (MES, 100 mM, pH 6.5 for GalT and Tris-HCl, 100 mM, pH 8.0 for SiaT assays) containing a donor substrate (1.2 mM) (UDP-Gal for GalT and CMP-Neu5Ac for SiaT assays), an acceptor substrate (1 mM) (S1 for GalT and G2 for SiaT assays), MgCl2 (10 mM), and NmSiaDW (19.8 μg for GalT and 0.17 μg for SiaT assays). Reactions were quenched by adding 10 μL of pre-chilled ethanol to the reaction mixture followed by incubation at −20° C. for 30 min. Products were assayed as described above for pH profile studies.

For series [7], the system named is NmSiaDW. As to the kind of experiment: Thermostability of NmSiaDW (pre-heated 30 min, then activity assay at 30° C.). It is filed as biochemical, Neisseria meningitidis. As for the experimental part: Enzyme was pre-heated at a given temperature for 30 min, then put on ice for 10 min. Reactions were performed at 30° C. and activity assays were then carried out as described above for the temperature profile assays.

Setting [8] is: apparent, varying acceptor, 2 mM UDP-Gal, pH 6.5, 30° C.
Setting [9] is: α1-4-galactosyltransferase activity.

One may read the kcat as the maximal rate divided by the concentration of active sites. As to `CC(=O)N[C@H]1[C@H]([C@H](O)[C@H](O)CO)O[C@@](OCCCNC(=O)OCc2ccccc2)(C(=O)O)C[C@@H]1O[C@H]1O[C@H](CO)[C@H](O)[C@H](O)[C@H]1O` [G2, Galα1-4Neu5AcαProNHCbz], the turnover number (kcat) in series [1] was 7.1 ± 0.2 s⁻¹.

On to `CC(=O)N[C@H]1[C@H]([C@H](O)[C@H](O)CO)O[C@@](OC[C@H]2O[C@H](O[C@H]3C[C@](OC[C@H]4O[C@H](O[C@H]5C[C@](OC[C@H]6O[C@H](O[C@H]7C[C@](OC[C@H]8O[C@H](O[C@H]9C[C@](OCCCNC(=O)OCc%10ccccc%10)(C(=O)O)O[C@@H]([C@H](O)[C@H](O)CO)[C@@H]9NC(C)=O)[C@H](O)[C@@H](O)[C@H]8O)(C(=O)O)O[C@@H]([C@H](O)[C@H](O)CO)[C@@H]7NC(C)=O)[C@H](O)[C@@H](O)[C@H]6O)(C(=O)O)O[C@@H]([C@H](O)[C@H](O)CO)[C@@H]5NC(C)=O)[C@H](O)[C@@H](O)[C@H]4O)(C(=O)O)O[C@@H]([C@H](O)[C@H](O)CO)[C@@H]3NC(C)=O)[C@H](O)[C@@H](O)[C@H]2O)(C(=O)O)C[C@@H]1O[C@H]1O[C@H](CO)[C@H](O)[C@H](O)[C@H]1O` [G10, Galα1(-4Neu5Acα2-6Galα1)4-4Neu5AcαProNHCbz], for which the kcat amounted to 6.1 ± 0.2 s⁻¹ in series [1] and 7.03 ± 0.39 s⁻¹ in series [2].

As to `CO[C@H]1O[C@H](CO)[C@H](O)[C@H](O)[C@H]1O` [GalαOMe], the Product entry in series [3] is on record as “Not Detected”.

In the case of `OC[C@H]1O[C@@H](O[C@H]2[C@H](O)[C@@H](O)C(O)O[C@@H]2CO)[C@H](O)[C@@H](O)[C@H]1O` (some centres unmarked) [Galβ1-4Glc], the Product result in series [3] is recorded as “√”.

As for `CC(=O)N[C@H]1[C@H]([C@H](O)[C@H](O)CO)O[C@@](OCCCNC(=O)OCc2ccccc2)(C(=O)O)C[C@@H]1O[C@H]1O[C@H](CO[C@]2(C(=O)O)C[C@H](O)[C@@H](NC(C)=O)[C@H]([C@H](O)[C@H](O)CO)O2)[C@H](O)[C@H](O)[C@H]1O` [S3, Neu5Acα2-6Galα1-4Neu5AcαProNHCbz], the kcat in series [4] turned out to be 6.3 ± 0.2 s⁻¹.

As a reminder, the Km is the substrate concentration at which the rate is half of its maximum. In the case of `CC(=O)N[C@H]1[C@H]([C@H](O)[C@H](O)CO)O[C@@](OCCCNC(=O)OCc2ccccc2)(C(=O)O)C[C@@H]1O[C@H]1O[C@H](CO[C@]2(C(=O)O)C[C@H](O[C@H]3O[C@H](CO[C@]4(C(=O)O)C[C@H](O[C@H]5O[C@H](CO[C@]6(C(=O)O)C[C@H](O[C@H]7O[C@H](CO[C@]8(C(=O)O)C[C@H](O)[C@@H](NC(C)=O)[C@H]([C@H](O)[C@H](O)CO)O8)[C@H](O)[C@H](O)[C@H]7O)[C@@H](NC(C)=O)[C@H]([C@H](O)[C@H](O)CO)O6)[C@H](O)[C@H](O)[C@H]5O)[C@@H](NC(C)=O)[C@H]([C@H](O)[C@H](O)CO)O4)[C@H](O)[C@H](O)[C@H]3O)[C@@H](NC(C)=O)[C@H]([C@H](O)[C@H](O)CO)O2)[C@H](O)[C@H](O)[C@H]1O` [S9, Neu5Acα2(-6Galα1-4Neu5Acα2)4-ProNHCbz], the kcat in series [4] is 9.0 ± 0.2 s⁻¹; in series [5] (setting [8]), 5.1 ± 0.3 s⁻¹. In series [5] (setting [8]), the Km is less than 50 µM. In addition, in series [5] (galactosyltransferase activity, 2 mM UDP-Gal), the “acceptor concentration above which substrate inhibition was observed” value is given as “higher than 2 mM”. Also, the “increase of overall catalytic efficiency (kcat/KM) relative to monosaccharide S1” value in series [5] (galactosyltransferase activity) was “more than 2100 fold”; in series [5] (galactosyltransferase activity, listed as nonasaccharide) it was “More than 2300 fold”.

B1: NmSiaDW: recombinant C-terminal His-tagged N. meningitidis serogroup W capsular polysaccharide synthase, SEQ ID NO:2 (protein)
chain: MAVIIFVNGIRAVNGLVKSSINTANAFAEEGLDVHLINFVGNITGAEHLYPPFHLHPNVKTSSIIDLFNDIPENVSCRNTPFYSIHQQFFKAEYSAHYKHVLMKIESLLSAEDSIIFTHPLQLEMYRLANNDIKSKAKLIVQIHGNYMEEIHNYEILARNIDYVDYLQTVSDEMLEEMHSHFKIKKDKLVFIPNITYPISLEKKEADFFIKDNEDIDNAQKFKRISIVGSIQPRKNQLDAIKIINKIKNENYILQIYGKSINKDYFELIKKYIKDNKLQNRILFKGESSEQEIYENTDILIMTSESEGFPYIFMEGMVYDIPIVVYDFKYGANDYSNYNENGCVFKTGDISGMAKKIIELLNNPEKYKELVQYNHNRFLKEYAKDVVMAKYFTILPRSFNNVSLSSAFSRKELDEFQNITFSIEDSNDLAHIWNFELTNPAQNMNFFALVGKRKFPMDAHIQGTQCTIKIAHKKTGNLLSLLLKKRNQLNLSRGYTLIAEDNSYEKYIGAISNKGNFEIIANKKSSLVTINKSTLELHEIPHELHQNKLLIALPNMQTPLKITDDNLIPIQASIKLEKIGNTYYPCFLPSGIFNNICLDYGEESKIINFSKYSYKYIYDSIRHIEQHTDISDIIVCNVYSWELIRASVIESLMEFTGKWEKHFQTSPKIDYRFDHEGKRSMDDVFSEETFIMEFPRKNGIDKKTAAFQNIPNSIVMEYPQTNGYSMRSHSLKSNVVAAKHFLEKLNKIKVDIKFKKHDLANIKKMNRIIYEHLGININIEAFLKPRLEKFKREEKYFHDFFKRNNFKEVIFPSTYWNPGIICAAHKQGIKVSDIQYAAITPYHPAYFKSPKSHYVADKLFLWSEYWNHELLPNPTREIGSGAAYWYALDDVRFSEKLNYDYIFLSQSRISSRLLSFAIEFALKNPQLQLLFSKHPDENIDLKNRIIPDNLIISTESSIQGINESRVAVGVYSTSLFEALACGKQTFVVKYPGYEIMSNEIDSGLFFAVETPEEMLEKTSPNWVAVADIENQFFGQEK
Turning to B1, the optimal temperature in series [6] (sialyltransferase activity) was 30-37 °C; in series [6] (setting [9]) it was 20-33 °C. Further, the “incubation temperature at which both glycosyltransferase activities were lost (30 minutes)” value in series [7] (both activities) stood at 44 °C. For the same molecule, the “temperature up to which activity is retained after 30 minutes incubation” value in series [7] (setting [9]) is “up to 33 °C”. In addition, the “incubation temperature above which activity decreased significantly (30 minutes)” value in series [7] (α2-6-sialyltransferase activity) was “higher than 30 °C”.
